pKd: −log10 of the molar value. Activity calls are given as the source filed them. Cut-off read from the data, not from the text of the source, for most assays here: actives have a measured Kd and inactives only a lower limit.
Assays:
[1] = molecular target: RAC-alpha serine/threonine-protein kinase (Homo sapiens, UniProt P31749)
[2] = molecular target: Cyclin-dependent kinase 5 (Homo sapiens, UniProt Q00535)
Ephrin type-B receptor 3 = molecular target: T1, Ephrin type-B receptor 3 (Homo sapiens, UniProt P54753)
T1 sequence (P54753 whole entry): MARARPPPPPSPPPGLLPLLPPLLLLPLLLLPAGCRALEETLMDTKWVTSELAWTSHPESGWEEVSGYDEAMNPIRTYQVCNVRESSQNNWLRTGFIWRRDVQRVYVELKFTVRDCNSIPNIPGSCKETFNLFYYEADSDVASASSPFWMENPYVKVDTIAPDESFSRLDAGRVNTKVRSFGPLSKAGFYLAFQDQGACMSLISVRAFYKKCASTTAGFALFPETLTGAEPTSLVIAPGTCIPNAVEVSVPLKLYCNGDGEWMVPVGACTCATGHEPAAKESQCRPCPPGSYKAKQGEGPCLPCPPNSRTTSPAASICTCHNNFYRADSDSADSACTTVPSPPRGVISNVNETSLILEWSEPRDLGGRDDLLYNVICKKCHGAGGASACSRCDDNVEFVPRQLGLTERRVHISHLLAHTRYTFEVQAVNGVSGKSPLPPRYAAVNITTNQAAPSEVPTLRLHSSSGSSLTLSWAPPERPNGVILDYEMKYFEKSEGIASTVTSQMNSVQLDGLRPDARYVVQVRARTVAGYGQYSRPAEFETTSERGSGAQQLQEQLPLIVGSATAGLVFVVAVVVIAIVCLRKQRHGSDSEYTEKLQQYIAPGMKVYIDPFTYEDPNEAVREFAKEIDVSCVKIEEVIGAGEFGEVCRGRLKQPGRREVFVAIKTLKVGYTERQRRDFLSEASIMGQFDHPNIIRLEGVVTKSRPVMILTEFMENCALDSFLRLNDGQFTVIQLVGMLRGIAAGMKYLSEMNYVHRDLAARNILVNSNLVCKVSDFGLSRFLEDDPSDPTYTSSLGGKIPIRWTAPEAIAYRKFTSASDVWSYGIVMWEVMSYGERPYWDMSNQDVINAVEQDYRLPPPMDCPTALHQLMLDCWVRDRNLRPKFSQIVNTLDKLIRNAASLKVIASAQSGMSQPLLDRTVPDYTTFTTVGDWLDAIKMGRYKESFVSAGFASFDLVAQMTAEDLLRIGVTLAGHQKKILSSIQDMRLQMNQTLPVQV

[3] = molecular target: T2, Serine/threonine-protein kinase D3 (Homo sapiens, UniProt O94806)
T2 sequence (O94806 whole entry): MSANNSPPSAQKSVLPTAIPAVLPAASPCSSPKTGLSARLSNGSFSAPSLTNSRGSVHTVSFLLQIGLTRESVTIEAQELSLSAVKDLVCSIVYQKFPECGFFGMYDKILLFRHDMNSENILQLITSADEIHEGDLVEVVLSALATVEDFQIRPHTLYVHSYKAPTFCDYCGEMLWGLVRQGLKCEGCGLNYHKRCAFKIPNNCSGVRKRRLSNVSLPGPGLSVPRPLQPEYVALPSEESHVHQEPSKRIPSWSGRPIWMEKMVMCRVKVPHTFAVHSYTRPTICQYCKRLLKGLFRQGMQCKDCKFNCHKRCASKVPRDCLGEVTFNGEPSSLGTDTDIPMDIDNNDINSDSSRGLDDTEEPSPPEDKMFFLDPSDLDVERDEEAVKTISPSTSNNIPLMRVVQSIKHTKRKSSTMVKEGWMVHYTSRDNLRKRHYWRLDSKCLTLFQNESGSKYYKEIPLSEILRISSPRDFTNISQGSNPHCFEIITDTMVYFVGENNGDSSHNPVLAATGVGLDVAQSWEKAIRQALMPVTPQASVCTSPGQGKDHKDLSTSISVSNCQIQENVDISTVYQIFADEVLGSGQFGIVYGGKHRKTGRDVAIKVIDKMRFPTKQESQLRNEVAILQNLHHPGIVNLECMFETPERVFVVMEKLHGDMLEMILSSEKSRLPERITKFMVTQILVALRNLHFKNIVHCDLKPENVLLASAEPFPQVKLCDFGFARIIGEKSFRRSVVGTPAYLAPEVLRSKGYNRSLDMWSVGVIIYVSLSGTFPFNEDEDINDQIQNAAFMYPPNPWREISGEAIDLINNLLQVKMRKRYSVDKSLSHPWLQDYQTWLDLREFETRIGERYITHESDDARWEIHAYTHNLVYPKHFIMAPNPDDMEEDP

[4] = molecular target: RAC-gamma serine/threonine-protein kinase (Homo sapiens, UniProt Q9Y243)
[5] = molecular target: T3, Serine/threonine-protein kinase Nek9 (Homo sapiens, UniProt Q8TD19)
T3 sequence (Q8TD19 whole entry): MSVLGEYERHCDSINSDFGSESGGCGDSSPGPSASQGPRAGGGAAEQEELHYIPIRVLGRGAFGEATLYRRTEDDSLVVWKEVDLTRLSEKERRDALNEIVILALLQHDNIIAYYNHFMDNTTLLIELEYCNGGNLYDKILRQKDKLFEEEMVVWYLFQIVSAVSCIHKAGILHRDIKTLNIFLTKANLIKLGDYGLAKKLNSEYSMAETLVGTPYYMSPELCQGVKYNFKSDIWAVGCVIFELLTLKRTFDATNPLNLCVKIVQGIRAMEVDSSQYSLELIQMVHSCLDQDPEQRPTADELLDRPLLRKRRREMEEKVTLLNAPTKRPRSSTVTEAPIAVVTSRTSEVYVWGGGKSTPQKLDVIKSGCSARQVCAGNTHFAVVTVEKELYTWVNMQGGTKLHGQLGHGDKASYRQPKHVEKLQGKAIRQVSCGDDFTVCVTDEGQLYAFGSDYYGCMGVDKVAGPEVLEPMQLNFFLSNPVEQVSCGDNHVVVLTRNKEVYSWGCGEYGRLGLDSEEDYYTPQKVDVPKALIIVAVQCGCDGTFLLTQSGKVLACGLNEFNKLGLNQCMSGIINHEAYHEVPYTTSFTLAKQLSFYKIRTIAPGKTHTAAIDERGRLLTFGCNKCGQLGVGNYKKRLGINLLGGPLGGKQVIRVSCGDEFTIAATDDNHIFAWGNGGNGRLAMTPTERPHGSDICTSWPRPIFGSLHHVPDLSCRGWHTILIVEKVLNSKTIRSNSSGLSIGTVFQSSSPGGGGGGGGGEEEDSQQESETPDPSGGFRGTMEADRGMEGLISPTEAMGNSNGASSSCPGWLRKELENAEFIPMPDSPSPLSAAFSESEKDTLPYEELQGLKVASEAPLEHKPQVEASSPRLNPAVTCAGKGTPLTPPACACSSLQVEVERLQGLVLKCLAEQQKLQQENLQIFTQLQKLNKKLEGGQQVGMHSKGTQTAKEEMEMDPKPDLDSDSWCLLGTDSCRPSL

[6] = molecular target: Mitogen-activated protein kinase kinase kinase 4 (Homo sapiens, UniProt Q9Y6R4)
Note: in the data inactive means no Kd found up to 30 µM.

Sequence of Cyclin-dependent kinase 5 (Q00535 whole entry): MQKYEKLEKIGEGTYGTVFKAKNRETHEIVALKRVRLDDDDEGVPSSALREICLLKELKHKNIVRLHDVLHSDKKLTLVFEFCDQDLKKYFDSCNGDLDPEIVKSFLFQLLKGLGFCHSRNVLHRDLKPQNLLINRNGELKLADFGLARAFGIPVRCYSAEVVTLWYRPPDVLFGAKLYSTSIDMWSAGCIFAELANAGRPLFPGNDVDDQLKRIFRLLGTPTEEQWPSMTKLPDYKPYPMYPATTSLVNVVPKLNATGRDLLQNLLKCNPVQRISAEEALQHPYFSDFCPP
Sequence of Mitogen-activated protein kinase kinase kinase 4 (Q9Y6R4 whole entry): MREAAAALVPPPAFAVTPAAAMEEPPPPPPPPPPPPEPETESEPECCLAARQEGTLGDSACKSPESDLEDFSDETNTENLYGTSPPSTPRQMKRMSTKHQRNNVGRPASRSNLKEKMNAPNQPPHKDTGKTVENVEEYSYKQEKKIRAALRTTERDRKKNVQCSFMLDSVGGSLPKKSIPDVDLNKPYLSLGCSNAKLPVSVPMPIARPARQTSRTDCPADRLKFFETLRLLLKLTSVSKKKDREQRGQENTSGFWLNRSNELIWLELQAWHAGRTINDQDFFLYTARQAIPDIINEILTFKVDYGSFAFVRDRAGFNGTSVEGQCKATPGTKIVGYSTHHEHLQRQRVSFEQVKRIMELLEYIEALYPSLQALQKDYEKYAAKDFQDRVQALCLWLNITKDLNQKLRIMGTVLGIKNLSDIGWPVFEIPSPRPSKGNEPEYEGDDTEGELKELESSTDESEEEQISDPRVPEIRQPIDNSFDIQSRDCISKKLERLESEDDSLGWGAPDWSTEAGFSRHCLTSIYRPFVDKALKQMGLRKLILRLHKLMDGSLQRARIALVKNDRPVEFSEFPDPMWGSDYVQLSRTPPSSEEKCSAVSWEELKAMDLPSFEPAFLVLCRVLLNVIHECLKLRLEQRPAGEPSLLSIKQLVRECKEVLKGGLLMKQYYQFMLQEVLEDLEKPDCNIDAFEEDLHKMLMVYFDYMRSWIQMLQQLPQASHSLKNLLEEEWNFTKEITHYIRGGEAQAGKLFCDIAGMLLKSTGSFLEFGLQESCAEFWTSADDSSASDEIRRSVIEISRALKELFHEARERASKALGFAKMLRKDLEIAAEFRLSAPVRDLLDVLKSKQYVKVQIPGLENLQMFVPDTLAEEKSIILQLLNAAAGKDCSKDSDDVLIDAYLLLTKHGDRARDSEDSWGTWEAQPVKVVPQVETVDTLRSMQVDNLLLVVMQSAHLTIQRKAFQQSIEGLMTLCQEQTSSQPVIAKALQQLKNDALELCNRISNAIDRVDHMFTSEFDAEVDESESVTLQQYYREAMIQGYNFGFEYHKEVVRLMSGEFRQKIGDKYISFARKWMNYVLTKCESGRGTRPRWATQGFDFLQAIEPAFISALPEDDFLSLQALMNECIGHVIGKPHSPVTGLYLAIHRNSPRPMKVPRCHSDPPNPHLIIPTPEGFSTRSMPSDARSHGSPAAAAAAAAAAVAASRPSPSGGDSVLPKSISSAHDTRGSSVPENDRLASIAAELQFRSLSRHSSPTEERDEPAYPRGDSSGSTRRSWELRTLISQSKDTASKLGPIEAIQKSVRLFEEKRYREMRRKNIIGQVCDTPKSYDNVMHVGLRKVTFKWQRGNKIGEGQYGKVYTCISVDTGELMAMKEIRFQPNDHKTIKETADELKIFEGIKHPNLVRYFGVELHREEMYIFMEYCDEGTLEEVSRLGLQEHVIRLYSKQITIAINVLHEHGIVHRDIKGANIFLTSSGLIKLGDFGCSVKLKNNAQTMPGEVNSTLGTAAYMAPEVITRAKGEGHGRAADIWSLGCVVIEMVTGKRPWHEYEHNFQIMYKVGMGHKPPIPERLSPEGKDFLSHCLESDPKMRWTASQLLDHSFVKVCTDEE
Sequence of RAC-alpha serine/threonine-protein kinase (P31749 whole entry): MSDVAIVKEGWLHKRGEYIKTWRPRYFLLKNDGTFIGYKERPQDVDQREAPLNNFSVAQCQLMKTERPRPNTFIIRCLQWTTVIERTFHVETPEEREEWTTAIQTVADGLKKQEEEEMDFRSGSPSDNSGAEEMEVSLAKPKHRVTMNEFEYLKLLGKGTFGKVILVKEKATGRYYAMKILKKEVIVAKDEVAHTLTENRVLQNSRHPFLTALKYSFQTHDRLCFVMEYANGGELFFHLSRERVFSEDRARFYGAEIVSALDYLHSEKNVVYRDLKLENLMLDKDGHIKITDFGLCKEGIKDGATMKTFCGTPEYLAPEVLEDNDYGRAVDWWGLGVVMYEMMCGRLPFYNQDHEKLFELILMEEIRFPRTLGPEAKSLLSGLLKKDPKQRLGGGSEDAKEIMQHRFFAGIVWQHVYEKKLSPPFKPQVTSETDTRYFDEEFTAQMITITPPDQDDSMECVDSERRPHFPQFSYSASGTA
Sequence of RAC-gamma serine/threonine-protein kinase (Q9Y243 whole entry): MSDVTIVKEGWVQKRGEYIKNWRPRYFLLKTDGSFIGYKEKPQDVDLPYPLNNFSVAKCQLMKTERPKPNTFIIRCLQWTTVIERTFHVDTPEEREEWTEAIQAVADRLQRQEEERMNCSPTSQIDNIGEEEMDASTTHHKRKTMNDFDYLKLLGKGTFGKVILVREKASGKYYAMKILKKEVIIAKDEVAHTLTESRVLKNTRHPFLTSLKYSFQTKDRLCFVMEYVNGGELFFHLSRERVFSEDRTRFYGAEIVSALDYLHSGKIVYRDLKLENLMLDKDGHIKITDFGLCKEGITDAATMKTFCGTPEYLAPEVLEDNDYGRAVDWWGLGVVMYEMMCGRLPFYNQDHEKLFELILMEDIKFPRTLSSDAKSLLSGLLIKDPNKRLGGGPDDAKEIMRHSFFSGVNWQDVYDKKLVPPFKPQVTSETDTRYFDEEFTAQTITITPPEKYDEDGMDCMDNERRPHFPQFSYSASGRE

Compound	Kd [1]	Kd [2]	Kd (Ephrin type-B receptor 3)	Kd [3]	Kd [4]	Kd [6]	Kd [5]	pKd [4]
Cc1c(F)cc(C(=O)NC2CC2)cc1-c1ccc(C(=O)NCC(C)(C)C)cn1 [LOSMAPIMOD]	> 30 µM (inactive)	> 30 µM (inactive)	> 30 µM (inactive)	> 30 µM (inactive)	> 30 µM (inactive)	> 30 µM (inactive)	> 30 µM (inactive)	–
C=CC(=O)N1CCC(Oc2cc3c(Nc4ccc(Cl)c(Cl)c4F)ncnc3cc2OC)CC1 [POZIOTINIB]	> 30 µM (inactive)	> 30 µM (inactive)	> 30 µM (inactive)	> 30 µM (inactive)	> 30 µM (inactive)	> 30 µM (inactive)	> 30 µM (inactive)	–
CCn1c(=O)c(-c2cc[nH]n2)cc2c(C)nc(N)nc21 [VOXTALISIB]	> 30 µM (inactive)	> 30 µM (inactive)	> 30 µM (inactive)	> 30 µM (inactive)	> 30 µM (inactive)	> 30 µM (inactive)	> 30 µM (inactive)	–
CC(=O)Nc1cccc(-n2c(=O)n(C3CC3)c(=O)c3c(Nc4ccc(I)cc4F)n(C)c(=O)c(C)c32)c1 [TRAMETINIB]	> 30 µM (inactive)	> 30 µM (inactive)	> 30 µM (inactive)	> 30 µM (inactive)	> 30 µM (inactive)	> 30 µM (inactive)	> 30 µM (inactive)	–
CN1CC[C@@H](c2c(O)cc(O)c3c(=O)cc(-c4ccccc4Cl)oc23)[C@@H]1CO	> 30 µM (inactive)	> 30 µM (inactive)	> 30 µM (inactive)	2.54 µM (active)	–	> 30 µM (inactive)	> 30 µM (inactive)	5.23
O=c1sn(-c2cccc3ccccc23)c(=O)n1Cc1ccccc1 [TIDEGLUSIB]	> 30 µM (inactive)	> 30 µM (inactive)	> 30 µM (inactive)	> 30 µM (inactive)	> 30 µM (inactive)	> 30 µM (inactive)	> 30 µM (inactive)	–
COc1cc(OC)c(/C=C/S(=O)(=O)Cc2ccc(OC)c(NCC(=O)O)c2)c(OC)c1 [RIGOSERTIB]	> 30 µM (inactive)	> 30 µM (inactive)	> 30 µM (inactive)	> 30 µM (inactive)	> 30 µM (inactive)	> 30 µM (inactive)	> 30 µM (inactive)	–
CN(C)C(=O)c1cc2cnc(Nc3ccc(N4CCNCC4)cn3)nc2n1C1CCCC1 [RIBOCICLIB]	> 30 µM (inactive)	> 30 µM (inactive)	> 30 µM (inactive)	> 30 µM (inactive)	> 30 µM (inactive)	> 30 µM (inactive)	> 30 µM (inactive)	–
CC[C@H](Nc1ncnc2[nH]cnc12)c1nc2cccc(F)c2c(=O)n1-c1ccccc1 [IDELALISIB]	> 30 µM (inactive)	> 30 µM (inactive)	> 30 µM (inactive)	> 30 µM (inactive)	> 30 µM (inactive)	> 30 µM (inactive)	> 30 µM (inactive)	–
COC(=O)N[C@@H](C)CNc1nccc(-c2cn(C(C)C)nc2-c2cc(Cl)cc(NS(C)(=O)=O)c2F)n1 [ENCORAFENIB]	> 30 µM (inactive)	> 30 µM (inactive)	> 30 µM (inactive)	> 30 µM (inactive)	> 30 µM (inactive)	1.44 µM (active)	> 30 µM (inactive)	–
C1=C/COCc2cc(ccc2OCCN2CCCC2)Nc2nccc(n2)-c2cccc(c2)COC/1 [PACRITINIB]	> 30 µM (inactive)	> 30 µM (inactive)	> 30 µM (inactive)	> 30 µM (inactive)	> 30 µM (inactive)	> 30 µM (inactive)	1.78 µM (active)	–
COCCNCc1ccc(-c2cc3nccc(Oc4ccc(NC(=S)NC(=O)Cc5ccc(F)cc5)cc4F)c3s2)nc1 [GLESATINIB]	> 30 µM (inactive)	> 30 µM (inactive)	> 30 µM (inactive)	> 30 µM (inactive)	> 30 µM (inactive)	> 30 µM (inactive)	> 30 µM (inactive)	–

Now from value to compound, other results behind:

Kd [1]	Kd [2]	Kd (Ephrin type-B receptor 3)	Kd [3]	Kd [4]	Kd [6]	Compound	Kd [5]	pKd [4]
> 30 µM (inactive)	> 30 µM (inactive)	5.5 µM (active)	> 30 µM (inactive)	> 30 µM (inactive)	> 30 µM (inactive)	COc1cc(N2CCC(N3CCN(C)CC3)CC2)ccc1Nc1ncnc(Nc2ccccc2S(=O)(=O)C(C)C)n1 [ASP-3026]	> 30 µM (inactive)	–
> 30 µM (inactive)	> 30 µM (inactive)	> 30 µM (inactive)	> 30 µM (inactive)	> 30 µM (inactive)	2.19 µM (active)	CCN1CCN(Cc2ccc(-c3cc4c(N[C@H](C)c5ccccc5)ncnc4[nH]3)cc2)CC1 [AEE-788]	> 30 µM (inactive)	–
> 30 µM (inactive)	> 30 µM (inactive)	> 30 µM (inactive)	> 30 µM (inactive)	> 30 µM (inactive)	> 30 µM (inactive)	O=C1NC(=O)/C(=C/c2ccc3nccc(-c4ccncc4)c3c2)S1 [GSK-1059615]	> 30 µM (inactive)	–
> 30 µM (inactive)	> 30 µM (inactive)	> 30 µM (inactive)	> 30 µM (inactive)	> 30 µM (inactive)	> 30 µM (inactive)	CN1CCC(CNc2ccc3ncc(-c4cccc(OC(F)(F)F)c4)n3n2)CC1 [SGI-1776]	> 30 µM (inactive)	–
> 30 µM (inactive)	> 30 µM (inactive)	> 30 µM (inactive)	> 30 µM (inactive)	> 30 µM (inactive)	> 30 µM (inactive)	Cn1cc(-c2ccc3nnc(C(F)(F)c4ccc5ncccc5c4)n3n2)cn1 [JNJ-38877605]	> 30 µM (inactive)	–
